From article PMC3303948 (Steroids, 2012)
Several values for one entry are separate records, joined by “and”; a condition that tells them apart may be missing. Identical values can stand only once.

Legend:
[1] = Compartmental analysis of plasma and tumor 1,25
[2] = 0.5 µg/kg once weekly; oncology setting; cited from earlier work
CYP24 mRNA [3] = assay: CYP24 mRNA expression in H292 cells in vitro
Tumor = type: in vivo, nu/nu mice
[4] = Plasma pharmacokinetics of 1,25; type: in vivo, nu/nu mice
CYP24 mRNA [5] = assay: CYP24 mRNA expression in H292 xenografts in vivo
[6] = ref personal communication, M. Petkovich; cited from earlier work
CYP24 [7] = conditions: cited from earlier work
CYP27B1 mRNA = CYP27B1 mRNA expression in H292 cells in vitro; type: cell-based, human; conditions: data not shown
CYP24 [8] = conditions: in vitro; 50 nM CTA091; ref Zhang et al., manuscript under review; cited from earlier work
[9] = compartmental model, tumor volume fixed at 1 L/kg
[10] = female, nu/nu, mouse, plasma, ip, 20 ug/kg
[11] = female, nu/nu, mouse, tumor (H292 xenograft), ip, 20 ug/kg
[12] = rats, a similar dose (to 250 µg/kg)
[13] = compartmental model, 250 µg/kg CTA091
[14] = 250 µg/kg CTA091 i.p. with 20 µg/kg 1,25(OH)2D3 versus 1,25(OH)2D3 alone

Structure (SMILES): C=C1/C(=C\C=C2/CCC[C@]3(C)[C@@H]([C@H](C)CCCC(C)(C)O)CC[C@@H]23)C[C@@H](O)C[C@@H]1O [1,25(OH)2D3, 1,25-dihydroxyvitamin D3]
- kct, transfer rate constant from the central to the tumor compartment, Estimate (%SE) [1, 9]: 0.454 (18) h^−1
- ktc, transfer rate constant from the tumor to the central compartment, Estimate (%SE) [1, 9]: 1.24 (22) h^−1
- CL/F [1, 10]: 4.85 mL/min/kg
- Vd/F [1, 10]: 0.653 L/kg
- half-life [1, 10]: 1.56 h
- k el [1, 10]: 0.000124 s⁻¹
- k el ([1]; female, nu/nu, mouse, tumor (H292 xenograft), intraperitoneal, 20 µg/kg): 0.000292 s⁻¹
- half-life [1, 11]: 0.661 h
- k el [1, 11]: 0.000289 s⁻¹
- Safety of high-dose 1,25(OH)2D3 [2]: safely delivered
- Induction of CYP24 expression in H292 cells in vitro (CYP24 mRNA [3]; 1 nM 1,25(OH)2D3 (Fig. 1A)): induced to express CYP24
- Maximum tumor concentration of 1,25(OH)2D3 (Tumor; H292 tumor, 20 µg/kg 1,25(OH)2D3 i.p.): 1.70 ng/mL
- Tumor Cmax of 1,25(OH)2D3 (Tumor; H292 tumor, 20 µg/kg 1,25(OH)2D3 i.p. alone or with 250 µg/kg CTA091): 1.7 ng/g and 1.70 ng/g
- Tmax (Tumor; [11]): 2 h
- half-life (Tumor; [11]): 1.95 h
- k el (Tumor; [11]): 9.86e-05 s⁻¹
- Peak tumor concentration of 1,25(OH)2D3 (molar) (Tumor; given that 1 g of tumor has a volume of 1 mL, without or with CTA091): 3.8 nM
- AUC(0-inf) [4, 10]: 69.1 ng·h/mL
- AUC(0-t) [4, 10]: 67.4 ng·h/mL
- CL/F [4, 10]: 4.82 mL/min/kg
- Cmax [4, 10]: 21.6 ng/mL
- Tmax [4, 10]: 0.25 h
- Vd/F [4, 10]: 0.592 L/kg
- half-life [4, 10]: 1.42 h
- k el [4, 10]: 0.000136 s⁻¹
- Tmax ([4]; female, nu/nu, mouse, plasma, ip, 20 µg/kg): 0.25 to 0.5 h
- Increase in tumor CYP24 mRNA levels (CYP24 mRNA [5]; single dose of 1,25(OH)2D3, 4 h post-treatment): approximately 4 fold
- Increase in tumor CYP24 mRNA levels (CYP24 mRNA [5]; single dose of 1,25(OH)2D3, after 8 h): ~15 fold

Structure (SMILES): C=C1/C(=C\C=C2/CCC[C@]3(C)[C@@H]([C@H](C)CCS(=N)(=O)c4ccccc4)CC[C@@H]23)C[C@@H](O)C[C@@H]1O (stereo partly drawn) [CTA091]
- Plasma clearance of CTA091 relative to 1,25(OH)2D3 [6]: cleared from plasma more rapidly than 1,25(OH)2D3
- Increase in rat serum 1,25(OH)2D3 Cmax (CYP24 [7]; rat, 500 µg/kg CTA091): 1.5 fold
- Increase in rat serum 1,25(OH)2D3 exposure (CYP24 [7]; rat, 500 µg/kg CTA091): 1.4 fold
- Effect on endogenous 1,25(OH)2D3 levels (CYP24 [7]; [12]): increased endogenous 1,25(OH)2D3 levels
- Effect on serum PTH levels (CYP24 [7]; [12]): decreased serum PTH levels
- Effect on CYP27B1 mRNA expression (CYP27B1 mRNA): no effect
- Decrease in plasma clearance of 1,25(OH)2D3 by CTA091 [1, 13]: 20%
- Decrease in tumor clearance of 1,25(OH)2D3 by CTA091 [1, 13]: 46%
- ktc/(ktc+ ktumor elim) ([1]; compartmental model, tumor clearance with versus without CTA091): 0.54
- Increase of the transcriptional induction of CYP24 by 1,25(OH)2D3 (CYP24 mRNA [3]; H292 cells, CTA091 with 1,25(OH)2D3, data not shown): approximately 4 fold
- Effect of CTA091 alone on CYP24 gene expression (CYP24 mRNA [3]; H292 cells, data not shown): no effect
- +/− CTA091 Ratio, tumor/plasma AUC0–h of 1,25(OH)2D3 (Tumor; [14]): 1.8
- +/− CTA091 Ratio, tumor/plasma Cmax of 1,25(OH)2D3 (Tumor; [14]): 1.7
- Increase in 1,25(OH)2D3 tumor levels by co-administered CTA091 (Tumor; 250 µg/kg CTA091 with 20 µg/kg 1,25(OH)2D3 i.p., H292 tumor): 2.6 fold
- +/− CTA091 Ratio, plasma AUC0-inf of 1,25(OH)2D3 [4, 14]: 1.5
- +/− CTA091 Ratio, plasma AUC0–8h of 1,25(OH)2D3 [4, 14]: 1.4
- +/− CTA091 Ratio, plasma Cl/F of 1,25(OH)2D3 [4, 14]: 0.68
- +/− CTA091 Ratio, plasma Cmax of 1,25(OH)2D3 [4, 14]: 1.6
- +/− CTA091 Ratio, plasma Kel of 1,25(OH)2D3 [4, 14]: 0.86
- +/− CTA091 Ratio, plasma Tmax of 1,25(OH)2D3 [4, 14]: 2
- +/− CTA091 Ratio, plasma Vd/F of 1,25(OH)2D3 [4, 14]: 0.79
- +/− CTA091 Ratio, plasma t1/2 of 1,25(OH)2D3 [4, 14]: 1.2
- Increase in 1,25(OH)2D3 plasma levels (Cmax) by co-administered CTA091 ([4]; 250 µg/kg CTA091 with 20 µg/kg 1,25(OH)2D3 i.p.): 1.6 fold
- Increase in 1,25(OH)2D3 plasma terminal half-life by CTA091 ([4]; 250 µg/kg CTA091 with 20 µg/kg 1,25(OH)2D3 i.p., non-compartmental): approximately 1.2 fold
- Effect on 1,25(OH)2D3-mediated transcription (CYP24 [8]): significantly increases 1,25(OH)2D3-mediated transcription
- Inhibition of 1,25(OH)2D3 catabolism (CYP24 [8]): consistently and maximally inhibits 1,25(OH)2D3 catabolism
